Assay results published in publication PMC12010006, “Subnanomolar MAS-related G protein-coupled receptor-X2/B2 antagonists with efficacy in human mast cells and disease models” (Signal Transduction and Targeted Therapy, 2025).
Read-outs that look alike come from different tables or passages of the source.

Assays:
Type in all cases: cell-based
MRGPRX1 = biological target: T1, MRGPRX1 (Homo sapiens, UniProt Q96LB2); test: β-arrestin assay, CHO cells expressing MRGPRX1 (subtype selectivity); conditions: 10 µM, versus BAM-22P (8.5 µM)
T1 construct: host or cells: CHO-K1 beta-arrestin-2 (EA) cells
T1 sequence (Q96LB2 whole entry): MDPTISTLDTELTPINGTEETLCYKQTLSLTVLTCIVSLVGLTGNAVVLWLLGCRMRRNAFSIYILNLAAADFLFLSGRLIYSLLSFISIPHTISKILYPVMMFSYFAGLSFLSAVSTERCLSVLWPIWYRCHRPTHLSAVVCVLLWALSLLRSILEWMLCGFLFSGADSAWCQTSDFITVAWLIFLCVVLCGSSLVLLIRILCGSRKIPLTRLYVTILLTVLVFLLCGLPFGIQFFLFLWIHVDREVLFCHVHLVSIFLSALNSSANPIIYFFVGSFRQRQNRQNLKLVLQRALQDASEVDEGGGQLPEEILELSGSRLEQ
Experimental: (§1) Fig. 1 Characterization of MRGPRX2 inhibitor 1. a Chemical structure and molecular weight (MW) of 1. b Concentration-response curve of 1 determined in β-arrestin recruitment assays. CHO cells that recombinantly express MRGPRX2 were employed versus the agonist CST-14 (at its EC80 value of 1.0 µM). […] Data are means ± SEM of 3 biological replicates, performed in duplicates. c MRGPRX subtype selectivity of 1 (10 µM) determined in β-arrestin assays using CHO cells that recombinantly express the respective MRGPRX subtype. MRGPRX1 was activated by BAM-22P (8.5 µM),[19] MRGPRX2 was activated by CST-14 (1 µM), MRGPRX3 was activated by PSB-20294 (1 µM), and MRGPRX4 by PSB-18061 (2.6 µM).[44] […] The effect of each MRGPRX agonist was assessed in the absence and in the presence of 1; results were normalized to the maximal agonist effect. […] Statistical significance was determined by one-way ANOVA (Tukey’s multiple comparisons) test (ns P > 0.05 and ****P < 0.0001) TEXT PRINTED IN THE PICTURE: (a) 1 Hit compound: MW: 241.29 g/mol
(§2) Fig. 3 Biological characterization of PSB-172656. a Selectivity of PSB-172656 (100 nM) for MRGPRX2 over MRGPRX1, MRGPRX3, and MRGPRX4 measured in β-arrestin assays utilizing β-arrestin-CHO cells with recombinant expression of the respective receptor. […] Statistical significance was determined by one-way ANOVA (Tukey’s multiple comparison) test (ns P > 0.05). […]

MRGPRX2 [1] = biological target: T2, MRGPRX2 (Homo sapiens, UniProt Q96LB1); test: β-arrestin recruitment assay (antagonist mode), β-arrestin-CHO cells recombinantly expressing MRGPRX2; set-up: expressed in transfected cells
T2 sequence (Q96LB1 1-330): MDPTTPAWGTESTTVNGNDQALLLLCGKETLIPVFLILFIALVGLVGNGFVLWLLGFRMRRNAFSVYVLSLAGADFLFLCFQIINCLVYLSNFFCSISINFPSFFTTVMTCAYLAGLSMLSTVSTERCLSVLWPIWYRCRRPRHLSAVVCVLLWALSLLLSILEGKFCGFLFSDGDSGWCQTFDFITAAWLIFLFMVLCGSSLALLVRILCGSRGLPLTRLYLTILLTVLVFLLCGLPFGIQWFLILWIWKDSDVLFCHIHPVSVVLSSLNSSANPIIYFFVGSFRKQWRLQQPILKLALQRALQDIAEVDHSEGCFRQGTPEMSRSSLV

MRGPRX2 [2] = biological target: T2, MRGPRX2; test: β-arrestin assay (agonist mode), β-arrestin CHO cells recombinantly expressing MRGPRX2; conditions: for EC50: agonist test, read-out: β-Arrestin assay EC50 ± SEM; for β-Arrestin assay % activation: normalized to CST-14 (EC80 5,000 nM)
Text: Eurofins DiscoverX (Fremont, CA, USA) provided engineered Chinese hamster ovary (CHO) cells stably expressing β-arrestin-2 fused to a large β-galactosidase fragment (enzyme acceptor, EA). These CHO-K1-β-arrestin-2 cells were commercially available (93-0164). CHO-K1-β-arrestin-2 cells that additionally expressed MRGPRX1, -2, or -4 fused to the fragment ProLink™ (PK) were also purchased from the same company (93-0919C2, 93-0309C2, and 3-0541C2A, respectively). CHO cells expressing MRGPRX3 were generated as previously […].[31] The cells were grown in F-12 Ham Nutrient Mixture (Life Technologies) supplemented with 10% FBS, 100 U/mL of penicillin, 100 µg/mL of streptomycin (PAN-Biotech), 300 μg/mL of hygromycin B (PAN-Biotech), and 800 μg/mL of gentamicin (PAN-Biotech) at 37 °C and 5% CO2.).
The assays were carried out as previously described.[22] […] After 30 min of incubation at 37 °C and 5% CO2, Cortistatin-14 (CST-14, Bioscience, Bristol, United Kingdom) or another MRGPRX2 agonist that served as a standard agonist was added, and the mixture was incubated for 90 min at 37 °C and 5% CO2. Next, a detection reagent (50 µL, DiscoverX) was added, and the mixture was incubated at room temperature in the dark for 60 min. Chemiluminescence was measured on a Mithras LB 940 plate reader (Berthold Technologies, Bad Wildbad, Germany). The results represent means ± SEM of three to five independent experiments, each in duplicates.
^d β-Arrestin CHO cells recombinantly expressing MRGPRX2
^f Percentage of activation of normalized to CST-14 (EC80 5,000 nM)

MRGPRX4 = biological target: T3, MRGPRX4 (Homo sapiens, UniProt Q96LA9); test: β-arrestin assay, CHO cells expressing MRGPRX4 (subtype selectivity); conditions: 10 µM, versus PSB-18061 (2.6 µM)
T3 construct: host or cells: CHO-K1 beta-arrestin-2 (EA) cells
T3 sequence (Q96LA9 whole entry): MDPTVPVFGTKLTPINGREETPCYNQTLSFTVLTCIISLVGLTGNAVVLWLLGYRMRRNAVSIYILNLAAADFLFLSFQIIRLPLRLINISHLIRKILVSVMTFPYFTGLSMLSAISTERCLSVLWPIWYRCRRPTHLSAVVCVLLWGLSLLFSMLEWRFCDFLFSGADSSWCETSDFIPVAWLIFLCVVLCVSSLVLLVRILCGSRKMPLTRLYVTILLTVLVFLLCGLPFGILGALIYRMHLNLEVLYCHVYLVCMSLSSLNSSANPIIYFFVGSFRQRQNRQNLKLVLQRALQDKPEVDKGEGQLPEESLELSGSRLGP
Experimental: as §1, §2

[3] = versus CST-14 (EC80 1,000 nM, EC50 483 nM), Cheng-Prusoff, read-out: β-Arrestin assay Ki ± SEM

What does the source list for CCc1c(C(C)C)[nH]c2nc3cc(F)c(F)cc3n2c1=O [Compound 24, 3-ethyl-7,8-difluoro-2-isopropylbenzo[4,5]imidazo [1,2-a] pyrimidin-4(1H)-one]?
inhibition of MRGPRX1 activation (MRGPRX1): not able to block; blockade of MRGPRX2 activation (MRGPRX2 [1]; 10 µM, versus CST-14 (1 µM)): completely blocked; difference of Ki versus other agonists from the Ki value versus CST-14 (MRGPRX2 [1]; all investigated agonists): < 2 fold; Schild plot slope (MRGPRX2 [1]; versus (R)-ZINC-3573): 0.891; IC50 (MRGPRX2 [1]; versus (R)-ZINC-3573 (EC80 2 µM), read-out: IC50 versus (R)-ZINC-3573, β-arrestin assay): 11.3 ± 3.1 nM; Ki (MRGPRX2 [1]; versus (R)-ZINC-3573 (EC80 2 µM), read-out: Ki versus (R)-ZINC-3573, β-arrestin assay): 5.44 nM; Kb (MRGPRX2 [1]; versus (R)-ZINC-3573, read-out: KB value (Schild plot)): 7.59 nM; Kb (MRGPRX2 [1]; versus (R)-ZINC-3573, read-out: pKB value (Schild plot) (converted)): 7.41 nM; Ki (MRGPRX2 [1]; versus C48/80 (EC80 18 µM), read-out: Ki versus compound 48/80, β-arrestin assay): 3.68 nM; Ki (MRGPRX2 [1]; [3]): 6.81 nM; Kb (MRGPRX2 [1]; versus CST-14, read-out: pKB value (Schild plot) (converted)): 6.76 nM; mode of action (inhibition type) (MRGPRX2 [1]; versus CST-14 and (R)-ZINC-3573): competitive mode of action; selectivity for MRGPRX2 versus other MRGPRX subtypes (MRGPRX2 [1]; versus MRGPRX1, -X3, -X4): at least 1000 fold; IC50 (MRGPRX2 [1]; versus SP (EC80 3 µM), read-out: IC50 versus substance P, β-arrestin assay): 30.5 ± 6.3 nM; Ki (MRGPRX2 [1]; versus SP (EC80 3 µM), read-out: Ki versus substance P, β-arrestin assay): 8.82 nM; IC50 (MRGPRX2 [1]; versus clomipramine (EC80 13 µM), read-out: IC50 versus clomipramine, β-arrestin assay): 17.2 ± 0.4 nM; Ki (MRGPRX2 [1]; versus clomipramine (EC80 13 µM), read-out: Ki versus clomipramine, β-arrestin assay): 7.04 nM; EC50 (MRGPRX2 [2]): > 10000 nM; β-Arrestin assay % activation (MRGPRX2 [2]): -1%; inhibition of MRGPRX4 activation (MRGPRX4): not able to block

For CCCc1c(C)[nH]c2nc3ccccc3n2c1=O [Compound 1, 2-methyl-3-propylbenzo[4,5]imidazo[1,2-a]pyrimidin-4(1H)-one], which “inhibition of MRGPRX1 activation” value (MRGPRX1) is on record?
Its value is “no inhibition”.

What about the IC50 (MRGPRX2 [1]; versus CST-14 (EC80 1.0 µM), read-out: IC50, β-arrestin assay) of the same molecule?
The IC50 was 2420 ± 220 nM.

And the Ki (MRGPRX2 [1]; [3])?
Its Ki is 788 ± 143 nM.

What about the EC50 (MRGPRX2 [2]) of the same molecule?
Its EC50 is > 10000 nM.

What about the “β-Arrestin assay % activation” value (MRGPRX2 [2]) of the same molecule?
The value was 1%.

What about the “inhibition of MRGPRX4 activation” value (MRGPRX4) of the same molecule?
The value was “no inhibition”.
